The values that follow come from US12459922B2 (Gilead Sciences, Inc., priority 2022, dated 2025).

In this test the test system is endogenous cellular STAT1 (phosphorylated at Tyr701) in NCI-H1373 cells. The test is described as follows: Phospho-STAT1 (Tyr701) LANCE Ultra TR-FRET Detection Assay. Format: cell-based. The following applies: Homo sapiens, NCI-H1373, 48 h, phospho-STAT1 (Tyr701) induction, read-out: NH1373 pSTAT1 EC50. For orientation: Time-resolved FRET reads energy transfer from a long-lived donor to a nearby acceptor.

Broadly, the EC50 is the concentration needed to bring the measured effect to its halfway point.

On to `COc1cc(-c2cc3ccn(CCC[C@H](C)Nc4cn[nH]c(=O)c4C(F)(F)F)c(=O)c3cc2F)ncc1C(F)(F)F` [Example 331, (S)-7-fluoro-6-(4-methoxy-5-(trifluoromethyl)pyridin-2-yl)-2-(4-((6-oxo-5-(trifluoromethyl)-1,6-dihydropyridazin-4-yl)amino)pentyl)isoquinolin-1(2H)-one], for which the EC50 was 78.1 nM.

As to `CCNc1nc(-c2cc3ccn(CCC[C@H](C)Nc4cn[nH]c(=O)c4C(F)(F)F)c(=O)c3cc2F)ncc1OC` [Example 215, (S)-6-(4-(ethylamino)-5-methoxypyrimidin-2-yl)-7-fluoro-2-(4-((6-oxo-5-(trifluoromethyl)-1,6-dihydropyridazin-4-yl)amino)pentyl)isoquinolin-1(2H)-one], the EC50 came out at 36.1 nM.

Regarding `COc1cnc(-c2cc3ccn(CCC[C@H](C)Nc4cn[nH]c(=O)c4C(F)(F)F)c(=O)c3cc2F)nc1N1CC2(COC2)C1` [Example 205], the EC50 stood at 75.8 nM.

For `O=c1[nH]ncc(Nc2cccc(Cn3ccc4cc(-c5ncc(C(F)(F)F)cn5)c(F)cc4c3=O)c2)c1C(F)(F)F` [Example 91, 7-fluoro-2-[[3-[[6-oxo-5-(trifluoromethyl)-1H-pyridazin-4-yl]amino]phenyl]methyl]-6-[5-(trifluoromethyl)pyrimidin-2-yl]isoquinolin-1-one], the EC50 was 290 nM.

Consider `CCNc1cnc(-c2cc3ccn(C[C@@H]4CCC[C@H](Nc5cn[nH]c(=O)c5C(F)(F)F)C4)c(=O)c3cc2F)cn1` [Example 277, 6-(5-(ethylamino)pyrazin-2-yl)-7-fluoro-2-(((1R,3S)-3-((6-oxo-5-(trifluoromethyl)-1,6-dihydropyridazin-4-yl)amino)cyclohexyl)methyl)isoquinolin-1(2H)-one], for which the EC50 came to 348 nM.

Take `Nc1nc(-c2cc3ccn(CCC[C@H](COC(F)F)Nc4cn[nH]c(=O)c4C(F)(F)F)c(=O)c3cc2F)ccc1Cl` [Example 410, (R)-6-(6-amino-5-chloropyridin-2-yl)-2-(5-(difluoromethoxy)-4-((6-oxo-5-(trifluoromethyl)-1,6-dihydropyridazin-4-yl)amino)pentyl)-7-fluoroisoquinolin-1(2H)-one]: the EC50 is 0.99 nM.

Take `O=c1[nH]ncc(N[C@H]2CCCC[C@@H]2CCn2ccc3cc(-c4ncc(C(F)(F)F)cn4)c(F)cc3c2=O)c1C(F)(F)F` [Example 450, 7-fluoro-2-[2-[(1R,2S)-2-[[6-oxo-5-(trifluoromethyl)-1H-pyridazin-4-yl]amino]cyclohexyl]ethyl]-6-[5-(trifluoromethyl)pyrimidin-2-yl]isoquinolin-1-one]: the EC50 amounted to 11.4 nM.

As for `CC[C@@H](CCCn1cnc2cc(-c3ccc(C(F)F)cn3)c(F)cc2c1=O)Nc1cn[nH]c(=O)c1C(F)(F)F` [Example 338, (S)-7-(5-(difluoromethyl)pyridin-2-yl)-6-fluoro-3-(4-((6-oxo-5-(trifluoromethyl)-1,6-dihydropyridazin-4-yl)amino)hexyl)quinazolin-4(3H)-one], the EC50 is 218 nM.

Regarding `Nc1nc(-c2cc3ccn(C[C@H]4CC[C@@H](Nc5cn[nH]c(=O)c5C(F)(F)F)C4)c(=O)c3cc2F)ncc1C(F)(F)F` [Example 447, 6-(4-amino-5-(trifluoromethyl)pyrimidin-2-yl)-7-fluoro-2-(((1S,3R)-3-((6-oxo-5-(trifluoromethyl)-1,6-dihydropyridazin-4-yl)amino)cvclopentyl)methyl)isoquinolin-1(2H)-one], the EC50 came to 25.6 nM.

Consider `C[C@H](Nc1cn[nH]c(=O)c1C(F)(F)F)[C@H](O)CCn1ccc2cc(-c3ncc(C(F)(F)F)cn3)c(F)cc2c1=O` [Example 445, 7-fluoro-2-((3R,4S)-3-hydroxy-4-((6-oxo-5-(trifluoromethyl)-1,6-dihydropyridazin-4-yl)amino)pentyl)-6-(5-(trifluoromethyl)pyrimidin-2-yl)isoquinolin-1(2H)-one], for which the EC50 was 18.5 nM.

For `COc1cnc(-c2cc3ccn(CCC[C@H](C)Nc4cn[nH]c(=O)c4C(F)(F)F)c(=O)c3cc2F)nc1NCCO` [Example 218, (S)-7-fluoro-6-(4-((2-hydroxyethyl)amino)-5-methoxypyrimidin-2-yl)-2-(4-((6-oxo-5-(trifluoromethyl)-1,6-dihydropyridazin-4-yl)amino)pentyl)isoquinolin-1(2H)-one], the EC50 came to 1100 nM.

As to `Nc1nc(-c2cc3ncn(CCC[C@H](COC(F)F)Nc4cn[nH]c(=O)c4C(F)(F)F)c(=O)c3cc2F)cnc1C(F)(F)F` [Example 419, (R)-7-(6-amino-5-(trifluoromethyl)pyrazin-2-yl)-3-(5-(difluoromethoxy)-4-((6-oxo-5-(trifluoromethyl)-1,6-dihydropyridazin-4-yl)amino)pentyl)-6-fluoroquinazolin-4(3H)-one], the EC50 amounted to 14.2 nM.

On to `Cc1cc(N)nc(-c2cc3ccn(CCC[C@H](C)Nc4cn[nH]c(=O)c4C(F)(F)F)c(=O)c3cc2F)n1` [Example 315, (S)-6-(4-amino-6-methylpyrimidin-2-yl)-7-fluoro-2-(4-((6-oxo-5-(trifluoromethyl)-1,6-dihydropyridazin-4-yl)amino)pentyl)isoquinolin-1(2H)-one], for which the EC50 was 561 nM.

Regarding `Nc1nc(-c2cc3ccn(C[C@@H]4CCC[C@H](Nc5cn[nH]c(=O)c5C(F)(F)F)C4)c(=O)c3cc2F)cnc1C(F)(F)F` [Example 249, 6-(6-amino-5-(trifluoromethyl)pyrazin-2-yl)-7-fluoro-2-(((1R,3S)-3-((6-oxo-5-(trifluoromethyl)-1,6-dihydropyridazin-4-yl)amino)cyclohexyl)methyl)isoquinolin-1(2H)-one], the EC50 was found to be 32.4 nM.

Turning to `C[C@@H](CCCn1cnc2cc(-c3ncc(Cl)cn3)c(F)cc2c1=O)Nc1cn[nH]c(=O)c1C(F)(F)F` [Example 200, (S)-7-(5-chloropyrimidin-2-yl)-6-fluoro-3-(4-((6-oxo-5-(trifluoromethyl)-1,6-dihydropyridazin-4-yl)amino)pentyl)quinazolin-4(3H)-one], the EC50 was 29.1 nM.

For `C[C@@H](CCCn1ccc2cc(-c3ncc(Cl)cn3)c(F)cc2c1=O)Nc1cn[nH]c(=O)c1C(F)(F)F` [Example 98, (S)-6-(5-chloropyrimidin-2-yl)-7-fluoro-2-(4-((6-oxo-5-(trifluoromethyl)-1,6-dihydropyridazin-4-yl)amino)pentyl)isoquinolin-1(2H)-one], the EC50 is 9.67 nM.

Regarding `O=c1[nH]ncc(N[C@H]2CCC[C@@H](Cn3ccc4cc(-c5ncc(C(F)F)cn5)c(F)c(F)c4c3=O)C2)c1C(F)(F)F` [Example 233], the EC50 amounted to 1.95 nM.

For `C[C@@H](CCCn1ccc2cc(-c3nc(N)c4c(n3)C(C)(C)OC4)c(F)cc2c1=O)Nc1cn[nH]c(=O)c1C(F)(F)F` [Example 358, (S)-6-(4-amino-7,7-dimethyl-5,7-dihydrofuro[3,4-d]pyrimidin-2-yl)-7-fluoro-2-(4-((6-oxo-5-(trifluoromethyl)-1,6-dihydropyridazin-4-yl)amino)pentyl)isoquinolin-1(2H)-one], the EC50 came out at 1330 nM.

Take `C[C@@H](CCCn1ccc2cc(-c3ncc4cc(F)ccc4n3)c(F)cc2c1=O)Nc1cn[nH]c(=O)c1C(F)(F)F` [Example 322, (S)-7-fluoro-6-(6-fluoroquinazolin-2-yl)-2-(4-((6-oxo-5-(trifluoromethyl)-1,6-dihydropyridazin-4-yl)amino)pentyl)isoquinolin-1(2H)-one]: the EC50 is 5.64 nM.

Regarding `Nc1nc(-c2cc3ccn(CCC[C@H](COC(F)F)Nc4cn[nH]c(=O)c4C(F)(F)F)c(=O)c3c(F)c2F)ncc1Cl` [Example 391, (R)-6-(4-amino-5-chloropyrimidin-2-yl)-2-(5-(difluoromethoxy)-4-((6-oxo-5-(trifluoromethyl)-1,6-dihydropyridazin-4-yl)amino)pentyl)-7,8-difluoroisoquinolin-1(2H)-one], the EC50 was found to be 6.3 nM.

Consider `[2H]C([2H])([2H])OC[C@@H](CCCn1ccc2cc(-c3ccc(C(F)(F)F)cn3)c(F)cc2c1=O)Nc1cn[nH]c(=O)c1C(F)(F)F` [Example 434], for which the EC50 was found to be 13 nM.

For `Nc1nc(-c2cc3ccn(CC[C@H]4COC[C@@H]4Nc4cn[nH]c(=O)c4C(F)(F)F)c(=O)c3cc2F)ncc1C(F)(F)F` (racemic) [Example 441, (rac) 6-(4-amino-5-(trifluoromethyl)pyrimidin-2-yl)-7-fluoro-2-(2-((3R,4R)-4-((6-oxo-5-(trifluoromethyl)-1,6-dihydropyridazin-4-yl)amino)tetrahydrofuran-3-yl)ethyl)isoquinolin-1(2H)-one], the EC50 stood at 388 nM.

With `O=c1[nH]ncc(N[C@H]2CCC[C@@H](Cn3ccc4cc(-c5ccc(Cl)cn5)c(F)cc4c3=O)C2)c1C(F)(F)F` [Example 280, 6-(5-chloropyridin-2-yl)-7-fluoro-2-(((1R,3S)-3-((6-oxo-5-(trifluoromethyl)-1,6-dihydropyridazin-4-yl)amino)cyclohexyl)methyl)isoquinolin-1(2H)-one], the EC50 came to 34.8 nM.

Regarding `O=c1[nH]ncc(N2C[C@@H](O)C[C@H]2CCCn2ccc3cc(-c4ncc(C(F)(F)F)cn4)c(F)cc3c2=O)c1C(F)(F)F` [Example 138, 7-fluoro-2-(3-((2R,4S)-4-hydroxy-1-(6-oxo-5-(trifluoromethyl)-1,6-dihydropyridazin-4-yl)pyrrolidin-2-yl)propyl)-6-(5-(trifluoromethyl)pyrimidin-2-yl)isoquinolin-1(2H)-one], the EC50 was 55.5 nM.

As for `C[C@@H](CCCn1ccc2cc(-c3ccc(Cl)c(N)n3)c(F)cc2c1=O)Nc1cn[nH]c(=O)c1C(F)(F)F` [Example 293, (S)-6-(6-amino-5-chloropyridin-2-yl)-7-fluoro-2-(4-((6-oxo-5-(trifluoromethyl)-1,6-dihydropyridazin-4-yl)amino)pentyl)isoquinolin-1(2H)-one], the EC50 was determined as 5.28 nM.

For the compound `CC[C@@H](CCCn1ccc2cc(-c3cnc(C(F)(F)F)c(N)n3)c(F)cc2c1=O)Nc1cn[nH]c(=O)c1C(F)(F)F` [Example 339, (S)-6-(6-amino-5-(trifluoromethyl)pyrazin-2-yl)-7-fluoro-2-(4-((6-oxo-5-(trifluoromethyl)-1,6-dihydropyridazin-4-yl)amino)hexyl)isoquinolin-1(2H)-one], the EC50 amounted to 17.4 nM.
